Laboratory results taken from patent US7339042B2, “Gene delivery to tumors” (University of Florida Research Foundation, Inc., priority 2003, dated 2008).
Entries after “also recorded” stand apart in the source; their conditions may differ. No end group written: not given here.

Tests used:
rat cerebral arteries [1] = assay: Cell viability staining of arteries (propidium iodide, H3334) after peptide; format: cell-based; settings: after treatment with peptide
Description: No PI statined smooth muscle cell nuclei were observed.
(§1) Effect of peptide on endothelial and smooth muscle function was evaluated by histamine (0.3 and 1 μM) and bradykinin (0.5 μM) (endothelium-dependent vasodilators) and 16 and 60 mM KCl (results in dilation and constriction of arteries by hyperpolarizing and depolarizing smooth muscle, respectively). These drug solutions were added to the superfusate and applied to the arteries extraluminally for 10 to 15 min before and after intraluminal perfusion with peptides. Effects of these agents were expressed as percent change in myogenic tone (decrease for dilators and increase for constrictors). Experiments were concluded by exposing the arteries to calcium free PCSF to obtain the passive diameter. Cell viability was determined by adding H3334 (Hoechst viability stain, final concentration 1 μM) and propidium iodide (final concentration 1 μM) to the arteriograph after the peptide incubation. Fluorescent micrographs were taken of the vessels after incubation with peptides and following addition of the vital stains using Till Photonics imaging system (Martinsried, Germany).

rat cerebral arteries [2] = assay: Vasodilation and vasoconstriction response of rat cerebral arteries before and after peptide; format: cell-based; settings: after vs before intraluminal peptide
Description: The blood vessels were put in culture described above and perfused with buffer of the same composition as cerebrospinal fluid. Vessel diameter was measured before and after administration of each reagent. 3 μM of each peptide was perfused through for 10 minutes followed by a 10 minute wash through. Vasoconstriction and vasodilation were determined for each vessel before peptide was applied. Perfusion was continued until the vessels relaxed to their original diamter (approximately 30 minutes). The vasoconstriction and vasodilation reponse was remeasured after the 10 minute wash through. The 60 mM KCl and 16 mM KCl conditions are […], respectively. Histamine and Bradykinin are endothelial cell vasodilators.
(§2) In some experiments, the arterial segments were denuded of endothelium by passing an air bubble through the lumen, thus exposing the smooth muscle cells to luminally administered peptides. Constriction to pressure and 60 mM KCl and dilation of arteries with myogenic tone to 16 mM KCl were used as benchmarks of functional arteries. Peptide containing PCSF was perfused intraluminally at an inlet pressure of 70 mmHg with the outlet open, for 20 min and then perfused with normal PCSF. This procedure ensures a 20 min of exposure of the arteries to the peptide.
as §1

[3] = tested on: endothelial cells and smooth muscle cells of rat cerebral arteries; assay: Uptake of fluorescent peptides by pressure-mounted rat cerebral arteries; format: cell-based
Description: Tat-P16 peptides were prepared and labeled with fluorescein for use in uptake studies using intact blood vessels isolated from rat brain. Blood vessels were dissected from rat brain and stabilized in an isolated perfusion system in which vessels were attached on either end to catheters and placed under physiological pressure. Following a 10 minute perfusion of the isolated vessels with flurorescent Tat-P16 peptide (1 μM), vessels were examined for uptake of the peptides. […] Within the endothelial cells, the labeled peptides were seen to be localized to the cell nuclei, further confirming uptake of the peptides by the cells.
The peptides are fairly labile in the media and approximately 50% are degraded upon incubation at 37° C. in complete media (qualitative analysis by PAGE) after 1 hour. […] Uptake of these peptides and cell killing activity was tested in a 3 dimensional organ culture using rat cerebral arteries cultured under physiological pressure and flow. A segment of the rat cerebral artery is surgically removed and placed in ringer's solution. Using a surgical stereoscope, the blood vessel is tied at either end to two cannulas on a teflon stage. Ringer's solution is perfused through the lumen of the vessel at a constant rate that maintains physiologic hydrostatic pressure. The fluorescent peptide was introduced intraluminally by perfusing a 1 μM solution of peptide through the lumen over a 10 minute period.
Rats were anesthetized by intraperitoneal injection of pentobarbital sodium (160 mg/kg) and killed by decapitation. The brain was removed and placed in an ice-cold oxygenated physiological cerebrospinal fluid (PCSF, see below for composition). Cerebellar arteries were isolated and mounted in an arteriograph as described previously (Knot and Nelson 1998). The arteriograph was placed on an inverted microscope and the artery was visualized with a monochrome CCD camera coupled to a calibrated video caliper system to measure arterial diameter. The arteries were slowly pressurized to 70 mmHg under no flow conditions using a pressure servo-null system (Living Systems Inc., Burlington Vt.), and warmed to 37° C. while being continuously superfused (5 ml/min) with PCSF bubbled with 21% O2, 5% CO2, 74% N2 (pH 7.35-7.40 in the bath). […] Myogenic tone is calculated by the following equation: Myogenic tone=(Dp−Da)/Dp×100
as §2

[4] = tested on: HUVEC attachment to vitronectin coated plates; settings: read-out: IC50 for inhibiting HUVEC attachment to vitronectin coated plates; cited from earlier work
Flk-1 = Flk-1 (Homo sapiens, UniProt P35968); settings: cited from earlier work
Sequence of Flk-1 (P35968 20-1356, species assumed): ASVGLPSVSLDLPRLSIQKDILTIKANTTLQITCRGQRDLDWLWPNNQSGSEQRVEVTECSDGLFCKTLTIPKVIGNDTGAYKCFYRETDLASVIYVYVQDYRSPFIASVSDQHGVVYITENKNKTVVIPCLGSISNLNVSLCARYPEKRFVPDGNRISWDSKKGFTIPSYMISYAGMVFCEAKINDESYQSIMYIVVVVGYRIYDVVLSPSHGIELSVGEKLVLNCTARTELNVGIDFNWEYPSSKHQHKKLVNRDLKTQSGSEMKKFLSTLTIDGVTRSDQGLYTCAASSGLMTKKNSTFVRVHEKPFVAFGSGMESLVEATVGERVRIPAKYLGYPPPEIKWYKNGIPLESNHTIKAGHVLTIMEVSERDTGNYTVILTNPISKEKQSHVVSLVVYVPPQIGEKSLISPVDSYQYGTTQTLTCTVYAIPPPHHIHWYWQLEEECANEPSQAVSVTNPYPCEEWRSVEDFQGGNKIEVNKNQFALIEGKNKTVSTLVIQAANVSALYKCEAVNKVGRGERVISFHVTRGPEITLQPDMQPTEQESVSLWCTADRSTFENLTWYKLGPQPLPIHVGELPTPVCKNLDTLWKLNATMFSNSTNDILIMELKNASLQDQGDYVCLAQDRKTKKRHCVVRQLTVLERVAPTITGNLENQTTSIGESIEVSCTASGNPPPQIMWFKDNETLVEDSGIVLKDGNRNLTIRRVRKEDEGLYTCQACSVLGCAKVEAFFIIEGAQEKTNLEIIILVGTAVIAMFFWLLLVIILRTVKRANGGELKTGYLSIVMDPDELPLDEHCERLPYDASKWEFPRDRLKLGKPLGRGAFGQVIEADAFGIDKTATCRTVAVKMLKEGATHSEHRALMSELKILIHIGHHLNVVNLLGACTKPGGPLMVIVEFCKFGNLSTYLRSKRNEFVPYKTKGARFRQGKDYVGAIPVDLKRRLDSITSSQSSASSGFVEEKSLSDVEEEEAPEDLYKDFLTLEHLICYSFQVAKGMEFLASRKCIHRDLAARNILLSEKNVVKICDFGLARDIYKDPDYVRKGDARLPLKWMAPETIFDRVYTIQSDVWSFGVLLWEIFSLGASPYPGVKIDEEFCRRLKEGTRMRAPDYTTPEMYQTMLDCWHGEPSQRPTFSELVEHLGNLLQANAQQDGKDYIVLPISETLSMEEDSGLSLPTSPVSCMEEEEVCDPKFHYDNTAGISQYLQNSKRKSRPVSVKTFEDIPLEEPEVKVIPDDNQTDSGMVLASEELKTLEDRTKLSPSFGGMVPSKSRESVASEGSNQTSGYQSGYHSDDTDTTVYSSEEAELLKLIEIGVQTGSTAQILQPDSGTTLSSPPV

T98G cells = assay: Fusion peptide cell killing, propidium iodide/FACS viability, T98G cells; format: cell-based, human; settings: 10 μM peptide, 1 hr
Description: (§3) Other experiments were performed using two glioma cell lines, i.e., T98G and RG2. 1×10^6 cells per well were incubated in 6-well plates with peptides in complete media for 1 hr. Cells were removed from the plate using a cell stripper and the percentage of viable cells was determined by staining with propidium iodide and analyzing by fluorescence activated cell sorting (FACS).
(§4) Cell viability studies were performed by plating the cells under the same conditions as the uptake studies. Cells were incubated with fluorescent peptides for 1 hr at 37° C. The cells were removed from the plate using cell striper. They were labeled with propidium iodide and fluorescein-AM. Percent PI positive cells were determined by FACS.

RG2 cells [5] = assay: Fusion peptide cell killing, propidium iodide/FACS viability, RG2 cells; format: cell-based, rat
Description: as §3
There are 4 conserved amino acid differences between the rat and human CDKI sequence. Both sequences were attached to Tat and tested for cell killing activity in the rat glioma RG2 cells. Also the effect of orientation of the Tat and CDKI domains were tested. RG2 cells were plated on 6 well plates at approximately 70% confluency. Each of the peptides was added to the wells with increasing concentration. After 1 hr, cells were removed from the plates, washed 2× with PBS, stained with propidium iodide and analyzed by FACS for viable cells.
as §4
The cytotoxicity of the chimeric peptides was characterized using a cell viability assay. Peptides were added to cells at a fixed concentration. After a 30-minute incubation, cells were removed from the plate, stained with propidium iodide and the % positive cells were determined by FACS (fluorescent activated cell scanning). The test conditions were Tat, ANT, Tat-P14ARF, ANT-P14ARF and P14ARF. T98G cells were tested along with RG2 cells and A172 cells.

RG2 cells [6] = assay: Fluorescein peptide uptake by RG2 cells, fluorescence microscopy; format: cell-based, rat
Description: (§5) For fluorescent microscopy studies cells were plated on 2 chamber cover slips at a density of 1×10^4 cells/chamber. Cells were incubated with […] peptide for 30 minutes in completed media, washed with PBS 3× and imaged using a Nikon Axiophot inverted fluorescent microscope. Images were taken using a Spot CCD camera.
Similar observations were obtained for all the peptides in another human glioblastoma cell line, T98G.

A172 cells = assay: Fluorescein peptide uptake by A172 cells, fluorescence microscopy; format: cell-based, human
Description: as §5
Synthetic peptides derived from HIV Tat (Tat) and the Drosophila antennaepedia homeodomain (ANT) were tested for cell uptake by A172 cells (human glioblastomas). The peptides were labeled at the N-terminus with fluorescein. Cells were incubated with 30 uM peptide at 37° C. in serum containing media. Fluorescent micrographs were taken after 1 hr incubation at 37° C. […] The size of the peptide was increased by added an Mdm-2 binding domain derived from P14ARF. This domain was added to the C-terminus of the Tat and ANT peptides. The P14ARF domain was also placed at the N-terminus followed by the Tat peptide. All the peptides were labeled at the N-terminus with fluorescein and cell incubations similar to the Tat and ANT peptides were tested for cellular uptake. […] Both the bright field and fluorescent micrographs show altered cell morphology.

[7] = tested on: two human glioblastoma cell lines and a rat glioma cell line; assay: Fluorescein peptide uptake, fluorescence microscopy, three glioma lines; format: cell-based; settings: 1 μM peptide, 10^6 cells, all three cell types
Description: Synthetic peptides labeled with an N-terminal fluorescein were synthesized to test the ability of a shuttle domain to enter brain tumor and endothelial cells. The amino acid sequences for the shuttle domain was derived from HIV Tat amino acid 47 to 56 ([…] SEQ ID NO:23)(Robert-Guroff et al., J. Virol. 64:3391-3398, 1990) to which AGGG was added to the N-terminus, and the antennapedia homeodomain from drosophila (ANT) ([…] SEQ ID NO:24) (Astriab-Fisher et al., Pharm. Res., 19:744-754, 2002). A synthetic peptide (PTD-5) reported to have similar properties as Tat and ANT was also tested (Mai J. C. et al, Cancer Res. 2001; 61: 7709-7712.). Uptake was tested in two human glioblastoma cell lines and a rat glioma cell line, the latter being used for the rat brain tumor model. A 1 μM concentration of each peptide was added to 10^6 cells in a 6 well plate. […] The Tat and ANT peptides were doubled in length by the addition of […] (SEQ ID NO: 25), amino acids 42 to 55 from a human cyclin-dependent kinase inhibitor 2A (melanoma, p16, inhibits CDK4) (CDKI), transcript variant 4, mRNA (accession no. NM_058195). This domain binds MDM2 and inhibit ubiquination of P53, a tumor suppressor protein. […] Only the combination of Tat-CDKI was toxic to the cells, 65% killing for T98G and 61% killing for RG2 cells. […] Similar results were obtained with A172 cells. […]

[8] = tested on: endothelial cells and smooth muscle cells of rat cerebral arteries; assay: Uptake of fluorescent peptides by pressure-mounted rat cerebral arteries; format: cell-based; settings: extraluminal addition
[9] = tested on: T98G cells, RG2 cells and A172 cells; assay: Cell viability assay of chimeric peptides in three cell types; format: cell-based, human and rat; settings: fixed concentration, 30-minute incubation
Description: Synthetic peptides labeled with an N-terminal fluorescein were synthesized to test the ability of a shuttle domain to enter brain tumor and endothelial cells. The amino acid sequences for the shuttle domain was derived from HIV Tat amino acid 47 to 56 ([…] SEQ ID NO:23)(Robert-Guroff et al., J. Virol. 64:3391-3398, 1990) to which AGGG was added to the N-terminus, and the antennapedia homeodomain from drosophila (ANT) ([…] SEQ ID NO:24) (Astriab-Fisher et al., Pharm. Res., 19:744-754, 2002). A synthetic peptide (PTD-5) reported to have similar properties as Tat and ANT was also tested (Mai J. C. et al, Cancer Res. 2001; 61: 7709-7712.). Uptake was tested in two human glioblastoma cell lines and a rat glioma cell line, the latter being used for the rat brain tumor model. A 1 μM concentration of each peptide was added to 10^6 cells in a 6 well plate. […] The Tat and ANT peptides were doubled in length by the addition of […] (SEQ ID NO: 25), amino acids 42 to 55 from a human cyclin-dependent kinase inhibitor 2A (melanoma, p16, inhibits CDK4) (CDKI), transcript variant 4, mRNA (accession no. NM_058195). […]
The cytotoxicity of the chimeric peptides was characterized using a cell viability assay. […] After a 30-minute incubation, cells were removed from the plate, stained with propidium iodide and the % positive cells were determined by FACS (fluorescent activated cell scanning). […]

HIV = settings: cited from earlier work
[10] = intraluminal perfusion of fluorescent peptide

## AGGGYGRKKRRQRRRMGRRFVVTVRIRRT [Tat-rat P14ARF]
Rat cerebral arteries [1]
  propidium iodide staining of blood vessels: only the endothelial cells were affected
Rat cerebral arteries [2]
  endothelium-dependent dilation to histamine and bradykinin: inhibition of vasodilation
  smooth muscle response to 60 and 16 mM KCl: no effect
[3]; after intraluminal exposure
  morphology of the endothelial cells: morphology of the endothelial cells was altered
[3]; [10]
  labeling/uptake by endothelial cells: restriction of labeling to the endothelial cells

## CDMRGDMFC [αvβ3 integrin binding peptide]
[4]
  IC50: 10 µM

## HTMYYHHYQHHL [Flk-1 binding peptide]
Flk-1
  IC50: ~100 µM

## MVRRFLVTLRIRRA [P14ARF]
T98G cells
  % killing (toxicity): no toxicity
Rat cerebral arteries [2]
  endothelium-dependent dilation to histamine and bradykinin: responsive to all stimuli
  smooth muscle response to 60 and 16 mM KCl: responsive to all stimuli
RG2 cells [5]; 10 μM peptide, 1 hr
  % killing (toxicity): 22%
RG2 cells [5]; 30-minute incubation
  reduction in cell viability: 22%

## MVRRFLVTLRIRRAAGGGYGRKKRRQRRR [P14ARF-Tat]
RG2 cells [6]
  cell density: reduced cell density compared to TatP14ARF
  staining pattern (cell uptake): nuclear staining
RG2 cells [5]; dose response 1 μM to 10 μM
  IC50: 3 µM
A172 cells; 30 uM peptide, 1 hr, 37° C., serum containing media
  staining pattern (cell uptake): nuclear staining
A172 cells; A172 cells, 1-hour incubation
  cell density: reduced cell density

## RQIKIWFQNRRMKWKK [ANT, membrane permeability domain alone, control peptide]
[7]
  fluorescence labeling of cells (uptake): stained the cytoplasm
[8]
  labeling of smooth muscle cells: able to label the smooth muscle cells
[3]; [10]
  labeling/uptake by endothelial cells: restriction of labeling to the endothelial cells; also recorded: cytoplasmic staining of the endothelial cells
  labeling/uptake by smooth muscle cells: did not label the smooth muscle cells
A172 cells; 30 uM peptide, 1 hr, 37° C.
  fluorescent intensity (degree of cell uptake): greater for the ANT peptide than the Tat peptide
[9]
  cells killed: No impact on cell viability

## RQIKIWFQNRRMKWKK-MVRRFLVTLRIRRA [ANT-P14ARF]
RG2 cells [6]
  staining pattern (cell uptake): intracellular punctate staining

## RRNalCYCitKdEPYRCitCR [CXCR4 peptide]
HIV
  IC50 for inhibiting HIV: in the nM range
